Measurements: patent US4868321A, “Isothiocyanate intermediates” (FMC Corporation, priority 1988, dated 1989)

What was measured:
Type in all cases: in vivo
Cotton [1] = assay: Preemergence Herbicidal Activity, Cotton; details: Gossypium hirsutum, pre-emergence; for plant injury at 500 g/ha: 0.5 kg/ha
Excerpt: (§1) The herbicidal data in the following Tables 3 and 4 was obtained in the manner described in PCT published application no. WO 85/01939, previously mentioned, usually employing solutions of the herbicidal compound in 50/50 acetone/water mixtures. In those tables, the test compounds are identified by numbers which correspond to those in Table 1, "kg/ha" is kilograms per hectare, and "% C" is percent control.

Soybean [2] = assay: Preemergence Herbicidal Activity, Soybean; details: Glycine max, pre-emergence; for plant injury at 500 g/ha: 0.5 kg/ha
Excerpt: (§2) The herbicidal data in the following Tables 3 and 4 was obtained in the manner described in PCT published application no. […] In those tables, the test compounds are identified by numbers which correspond to those in Table 1, "kg/ha" is kilograms per hectare, and "% C" is percent control.

Field Corn [3] = assay: Preemergence Herbicidal Activity, Field Corn; details: Zea mays, pre-emergence; for plant injury at 500 g/ha: 0.5 kg/ha
Excerpt: as §2

Rice [4] = assay: Preemergence Herbicidal Activity, Rice; details: Oryza sativa, pre-emergence; for plant injury at 500 g/ha: 0.5 kg/ha
Excerpt: as §2

Wheat [5] = assay: Preemergence Herbicidal Activity, Wheat; details: Triticum aestivum, pre-emergence; for plant injury at 500 g/ha: 0.5 kg/ha
Excerpt: as §2

Field Bindweed [6] = assay: Preemergence Herbicidal Activity, Field Bindweed; details: pre-emergence; for pest or weed control at 500 g/ha: 0.5 kg/ha
Excerpt: as §1

Morningglory [7] = assay: Preemergence Herbicidal Activity, Morningglory; details: Ipomoea, pre-emergence; for pest or weed control at 500 g/ha: 0.5 kg/ha
Excerpt: as §1

Velvetleaf [8] = assay: Preemergence Herbicidal Activity, Velvetleaf; details: Abutilon theophrasti, pre-emergence; for pest or weed control at 500 g/ha: 0.5 kg/ha
Excerpt: as §1

Barnyardgrass [9] = assay: Preemergence Herbicidal Activity, Barnyardgrass; details: Echinochloa crus-galli, pre-emergence; for pest or weed control at 500 g/ha: 0.5 kg/ha
Excerpt: as §2

Green Foxtail [10] = assay: Preemergence Herbicidal Activity, Green Foxtail; details: Setaria viridis, pre-emergence; for pest or weed control at 500 g/ha: 0.5 kg/ha
Excerpt: as §2

Johnsongrass [11] = assay: Preemergence Herbicidal Activity, Johnsongrass; details: Sorghum halepense, pre-emergence; for pest or weed control at 500 g/ha: 0.5 kg/ha
Excerpt: as §2

Cotton [12] = assay: Postemergence Herbicidal Activity, Cotton; details: Gossypium hirsutum, post-emergence; for plant injury at 500 g/ha: 0.5 kg/ha
Excerpt: as §1

Soybean [13] = assay: Postemergence Herbicidal Activity, Soybean; details: Glycine max, post-emergence; for plant injury at 500 g/ha: 0.5 kg/ha
Excerpt: as §2

Field Corn [14] = assay: Postemergence Herbicidal Activity, Field Corn; details: Zea mays, post-emergence; for plant injury at 500 g/ha: 0.5 kg/ha
Excerpt: as §2

Rice [15] = assay: Postemergence Herbicidal Activity, Rice; details: Oryza sativa, post-emergence; for plant injury at 500 g/ha: 0.5 kg/ha
Excerpt: as §2

Wheat [16] = assay: Postemergence Herbicidal Activity, Wheat; details: Triticum aestivum, post-emergence; for plant injury at 500 g/ha: 0.5 kg/ha
Excerpt: as §2

Field Bindweed [17] = assay: Postemergence Herbicidal Activity, Field Bindweed; details: post-emergence; for pest or weed control at 500 g/ha: 0.5 kg/ha
Excerpt: as §1

Morningglory [18] = assay: Postemergence Herbicidal Activity, Morningglory; details: Ipomoea, post-emergence; for pest or weed control at 500 g/ha: 0.5 kg/ha
Excerpt: as §1

Velvetleaf [19] = assay: Postemergence Herbicidal Activity, Velvetleaf; details: Abutilon theophrasti, post-emergence; for pest or weed control at 500 g/ha: 0.5 kg/ha
Excerpt: as §1

Barnyardgrass [20] = assay: Postemergence Herbicidal Activity, Barnyardgrass; details: Echinochloa crus-galli, post-emergence; for pest or weed control at 500 g/ha: 0.5 kg/ha
Excerpt: as §2

Green Foxtail [21] = assay: Postemergence Herbicidal Activity, Green Foxtail; details: Setaria viridis, post-emergence; for pest or weed control at 500 g/ha: 0.5 kg/ha
Excerpt: as §2

Johnsongrass [22] = assay: Postemergence Herbicidal Activity, Johnsongrass; details: Sorghum halepense, post-emergence; for pest or weed control at 500 g/ha: 0.5 kg/ha
Excerpt: as §2

**Q.** Which results are given for `CCS(=O)(=O)N(CC#N)c1cc(-n2nnn(CCCF)c2=O)c(F)cc1Cl` [Compound 16]?
**A.** plant injury at 500 g/ha (Cotton [1]): 100%; plant injury at 500 g/ha (Soybean [2]): 80%; plant injury at 500 g/ha (Field Corn [3]): 95%; plant injury at 500 g/ha (Rice [4]): 70%; plant injury at 500 g/ha (Wheat [5]): 60%; pest or weed control at 500 g/ha (Field Bindweed [6]): 100%; pest or weed control at 500 g/ha (Morningglory [7]): 100%; pest or weed control at 500 g/ha (Velvetleaf [8]): 100%; pest or weed control at 500 g/ha (Barnyardgrass [9]): 90%; pest or weed control at 500 g/ha (Green Foxtail [10]): 100%; pest or weed control at 500 g/ha (Johnsongrass [11]): 90%; plant injury at 500 g/ha (Cotton [12]): 100%; plant injury at 500 g/ha (Soybean [13]): 70%; plant injury at 500 g/ha (Field Corn [14]): 50%; plant injury at 500 g/ha (Rice [15]): 50%; plant injury at 500 g/ha (Wheat [16]): 60%; pest or weed control at 500 g/ha (Field Bindweed [17]): 100%; pest or weed control at 500 g/ha (Morningglory [18]): 100%; pest or weed control at 500 g/ha (Velvetleaf [19]): 100%; pest or weed control at 500 g/ha (Barnyardgrass [20]): 50%; pest or weed control at 500 g/ha (Green Foxtail [21]): 70%; pest or weed control at 500 g/ha (Johnsongrass [22]): 60%

**Q.** Which plant injury at 1000 g/ha (Cotton [1]; 1.0 kg/ha) does the source give for `CCS(=O)(=O)N(c1cc(-n2nnn(CCCF)c2=O)c(F)cc1Br)S(=O)(=O)CC` [Compound 22, 1-[4-bromo-2-fluoro-5-[bis(N--ehtylsulfonyl)amino]phenyl]-1,4-dihydro-4-(3-fluoropropyl)-5H--tetrazol-5-one] here?
**A.** 100%

**Q.** And the plant injury at 1000 g/ha (Soybean [2]; 1.0 kg/ha)?
**A.** 60%

**Q.** And the plant injury at 1000 g/ha (Field Corn [3]; 1.0 kg/ha)?
**A.** 95%

**Q.** And the plant injury at 1000 g/ha (Rice [4]; 1.0 kg/ha)?
**A.** 80%

**Q.** And the plant injury at 1000 g/ha (Wheat [5]; 1.0 kg/ha)?
**A.** 90%

**Q.** And the pest or weed control at 1000 g/ha (Field Bindweed [6]; 1.0 kg/ha)?
**A.** 100%

**Q.** What about the pest or weed control at 1000 g/ha (Morningglory [7]; 1.0 kg/ha) of the same compound?
**A.** 100%

**Q.** And the pest or weed control at 1000 g/ha (Velvetleaf [8]; 1.0 kg/ha)?
**A.** 100%

**Q.** And the pest or weed control at 1000 g/ha (Barnyardgrass [9]; 1.0 kg/ha)?
**A.** 100%

**Q.** What about the pest or weed control at 1000 g/ha (Green Foxtail [10]; 1.0 kg/ha) of the same compound?
**A.** 100%

**Q.** What about the pest or weed control at 1000 g/ha (Johnsongrass [11]; 1.0 kg/ha) of the same compound?
**A.** 100%

**Q.** What about the plant injury at 1000 g/ha (Cotton [12]; 1.0 kg/ha) of the same compound?
**A.** 100%

**Q.** What about the plant injury at 1000 g/ha (Soybean [13]; 1.0 kg/ha) of the same compound?
**A.** 95%

**Q.** And the plant injury at 1000 g/ha (Field Corn [14]; 1.0 kg/ha)?
**A.** 100%

**Q.** And the plant injury at 1000 g/ha (Rice [15]; 1.0 kg/ha)?
**A.** 80%

**Q.** What about the plant injury at 1000 g/ha (Wheat [16]; 1.0 kg/ha) of the same compound?
**A.** 90%

**Q.** And the pest or weed control at 1000 g/ha (Field Bindweed [17]; 1.0 kg/ha)?
**A.** 95%

**Q.** And the pest or weed control at 1000 g/ha (Morningglory [18]; 1.0 kg/ha)?
**A.** 95%

**Q.** And the pest or weed control at 1000 g/ha (Velvetleaf [19]; 1.0 kg/ha)?
**A.** 100%

**Q.** And the pest or weed control at 1000 g/ha (Barnyardgrass [20]; 1.0 kg/ha)?
**A.** 100%

**Q.** What about the pest or weed control at 1000 g/ha (Green Foxtail [21]; 1.0 kg/ha) of the same compound?
**A.** 100%

**Q.** What about the pest or weed control at 1000 g/ha (Johnsongrass [22]; 1.0 kg/ha) of the same compound?
**A.** 100%

**Q.** For `CCCS(=O)(=O)N(c1cc(-n2nnn(CCCF)c2=O)c(F)cc1F)S(=O)(=O)CCC` [Compound 25], which plant injury at 500 g/ha (Cotton [1]) is on record?
**A.** 10%

**Q.** And the plant injury at 500 g/ha (Soybean [2])?
**A.** 20%

**Q.** And the plant injury at 500 g/ha (Field Corn [3])?
**A.** 80%

**Q.** And the plant injury at 500 g/ha (Rice [4])?
**A.** 20%

**Q.** What about the plant injury at 500 g/ha (Wheat [5]) of the same compound?
**A.** 20%

**Q.** And the pest or weed control at 500 g/ha (Field Bindweed [6])?
**A.** 0%

**Q.** And the pest or weed control at 500 g/ha (Morningglory [7])?
**A.** 10%

**Q.** And the pest or weed control at 500 g/ha (Velvetleaf [8])?
**A.** 20%

**Q.** And the pest or weed control at 500 g/ha (Barnyardgrass [9])?
**A.** 50%

**Q.** And the pest or weed control at 500 g/ha (Green Foxtail [10])?
**A.** 10%

**Q.** What about the pest or weed control at 500 g/ha (Johnsongrass [11]) of the same compound?
**A.** 60%

**Q.** And the plant injury at 500 g/ha (Cotton [12])?
**A.** 40%

**Q.** What about the plant injury at 500 g/ha (Soybean [13]) of the same compound?
**A.** 20%

**Q.** And the plant injury at 500 g/ha (Field Corn [14])?
**A.** 60%

**Q.** What about the plant injury at 500 g/ha (Rice [15]) of the same compound?
**A.** 20%

**Q.** What about the plant injury at 500 g/ha (Wheat [16]) of the same compound?
**A.** 20%

**Q.** And the pest or weed control at 500 g/ha (Field Bindweed [17])?
**A.** 40%

**Q.** And the pest or weed control at 500 g/ha (Morningglory [18])?
**A.** 30%

**Q.** What about the pest or weed control at 500 g/ha (Velvetleaf [19]) of the same compound?
**A.** 80%

**Q.** And the pest or weed control at 500 g/ha (Barnyardgrass [20])?
**A.** 20%

**Q.** What about the pest or weed control at 500 g/ha (Green Foxtail [21]) of the same compound?
**A.** 30%

**Q.** What about the pest or weed control at 500 g/ha (Johnsongrass [22]) of the same compound?
**A.** 20%
